# Assay results taken from patent US20240190841A1, “MODULATORS OF BCL6 PROTEOLYSIS AND ASSOCIATED METHODS OF USE” (Arvinas Operations, Inc., priority 2022, published 2024).
# Biological target: T1, BCL6 (Homo sapiens, UniProt P41182)
# T1 construct: endogenous in cells; host or cells: T47D breast cancer epithelial cells
# Experiment: Immunofluorescence high content imaging of BCL6 degradation in T47D cells
# Format: cell-based
# Conditions: T47D breast cancer epithelial cells, 3 days incubation
# Description: Immunofluorescence Protocol for High Content Imaging of BCL6
# T47D cells were seeded in 100 μl volume of RPMI11640-10% FBS in a 96-well black/clear bottom plates for adherent lines (Corning #3904).
# Day 1. T47D breast cancer epithelial cells were seeded at a density so that confluence is ˜70-90% at endpoint. Cells were seeded at 7K/0.1 mL/well the morning prior to the addition of exemplary bifunctional degradation compounds.
# Day 2. Prepare an 11 point 3-fold serial dilution of exemplary bifunctional compound in DMSO and aliquot an appropriate volume to cell growth media to generate a 2× final concentration of exemplary bifunctional compound. Add an equal volume (0.1 ml) of 2× exemplary bifunctional compound/media mix to previously plated cells, for a final top concentration in aqueous cell growth media of 0.1 or 1 μM. Incubate for 3 days at 37° C., 5% CO2.
# Day 5 Immunofluorescence. Discard cell media. Wash wells with 200 μl of room temperature phosphate-buffered saline (PBS). Prepared 4% paraformaldehyde (PFA) from 16% PFA (Electron Microscopy Sciences #15710) using 1×PBS. Fifty μL of 4% PF was added to each well and incubate for 15 minutes at room temperature to fix the cells. The PFA was aspirated and the cells washed twice with PBS (200 μL)).
# Prepared 0.1% Triton X-100 in PBS using 10% triton X-100 stock. The cells were permeabilized by adding 100 μL of the 0.1% Triton X-100 in PBS to each well to permeabilize cells and incubating at room temperature for 15 minutes. Cells were washed twice with PBS.
# Prepared 3% BSA/PBS (from Thermofisher #37515 Blocker BSA in TBS, 10%), and 100 μL was added to each well. The cells were incubated for at least 1 hour at room temperature.
# Prepared 1% BSA/PBS using Blocker BSA/PBS, and the 3% BSA/PBS removed from the wells.
# For no primary antibody controls, 50 μL 1% BSA/PBS was added.
# Primary antibody (BCL6 Rb Ab, CST-14895, Cell Signaling) was diluted 1:300 in 1% BSA/PBS using Blocker BSA/PBS.
# Fifty μl of primary antibody added to all remaining wells (i.e., all wells other than the primary antibody controls) and the cells were incubated overnight at 4° C. with slow orbital movement.
# Day 6. Contents of the wells was removed and the cells washed four times with 200 μL PBS. 1% BSA/PBS was prepared using Blocker BSA in PBS.
# Diluted secondary antibody goat anti-Rb IgG Alexa-488 1:1000, and cell mask-Alexa-647 1:3000 in 1% BSA/PBS in the same mix. Add 50 μL to each well and incubate at room temperature for 1 hour in the dark.
# Cells were washed three times with 200 μL PBS, and then incubated for 10 minutes with 100 μL Hoechst dye at 1 μg/mL (20 mM stock) to stain cell nuclei. Wells were then washed with 200 μl PBS, and 100 μL of PBS was added to each well and the plate covered plate with a plastic opaque cover. Plates were stored at […] and covered in aluminum foil until imaged.
# Plates were equilibrated to room temperature prior to reading. The bottom of the plate was wiped with 70% isopropanol immediately prior to imaging.
# Imaging: • 10×, 4 fields/well, include Top hat smoothing in the analysis protocol.
# Supplies/Reagents: • 16% paraformaldehyde: Electron Microscopy Sciences #15710 • Hoechst: Thermofisher #62249 • Blocker BSA in PBS, 10%: Thermofisher #37515 • Blocker BSA in TBS, 10%: Thermofisher #37520 • Goat anti-rabbit or mouse AlexaFluor-488: Thermofisher #A11008 • Cell mask deep red AlexaFluor-647: Thermofisher #C10046 • Wash buffer, PBS: 20×PBS, Thermofisher
SMILES,DC50 [nM],Dmax [%]
"CNC(=O)COc1cc2cc(Nc3nc(N4CCC(O[C@H]5C[C@H](N6CCN(c7cc8c(cc7OC)n(C7CCC(=O)NC7=O)c(=O)n8C)CC6)C5)CC4)ncc3Cl)ccc2n(C(C)C)c1=O (stereo partly drawn) [Compound 15, 2-({6-[(5-chloro-2-{4-[(1r,3r)-3-{4-[1-(2,6-dioxopiperidin-3-yl)-6-methoxy-3-methyl-2-oxo-2,3-dihydro-1H-1,3-benzodiazol-5-yl]piperazin-1-yl}cyclobutoxy]piperidin-1-yl}pyrimidin-4-yl)amino]-2-oxo-1-(propan-2-yl)-1,2-dihydroquinolin-3-yl}oxy)-N-methylacetamide]",< 10,50 to 70
"CNC(=O)COc1cc2cc(Nc3nc(N4CCC(O[C@H]5C[C@H](N6CCN(c7cc(OC)c8c(c7)n(C)c(=O)n8C7CCC(=O)NC7=O)CC6)C5)CC4)ncc3Cl)ccc2n(C(C)C)c1=O (stereo partly drawn) [Compound 25, 2-({6-[(5-chloro-2-{4-[(1r,3r)-3-{4-[1-(2,6-dioxopiperidin-3-yl)-7-methoxy-3-methyl-2-oxo-2,3-dihydro-1H-1,3-benzodiazol-5-yl]piperazin-1-yl}cyclobutoxy]piperidin-1-yl}pyrimidin-4-yl)amino]-2-oxo-1-(propan-2-yl)-1,2-dihydroquinolin-3-yl}oxy)-N-methylacetamide]",< 10,
"CNC(=O)COc1cc2cc(Nc3nc(N4CCC(O[C@H]5C[C@H](N6CCN(c7ccc8c(c7Cl)[C@@H](C)N([C@@H]7CCC(=O)NC7=O)C8=O)[C@H](C)C6)C5)CC4)ncc3Cl)ccc2n(C(C)C)c1=O (single isomer, unassigned) [Compound 33]",< 10,≥ 70
"CNC(=O)COc1cc2cc(Nc3nc(N4CCC(O[C@H]5C[C@H](N6CCN(c7cc8c(cc7C)n(C7CCC(=O)NC7=O)c(=O)n8C)CC6)C5)CC4)ncc3Cl)ccc2n(C(C)C)c1=O (stereo partly drawn) [Compound 20, 2-({6-[(5-chloro-2-{4-[(1r,3r)-3-{4-[1-(2,6-dioxopiperidin-3-yl)-3,6-dimethyl-2-oxo-2,3-dihydro-1H-1,3-benzodiazol-5-yl]piperazin-1-yl}cyclobutoxy]piperidin-1-yl}pyrimidin-4-yl)amino]-2-oxo-1-(propan-2-yl)-1,2-dihydroquinolin-3-yl}oxy)-N-methylacetamide]",< 10,≥ 70
"CNC(=O)COc1cc2cc(Nc3nc(N4CCC(O[C@H]5C[C@H](N6CCC(c7cc(C)c8c(c7)CN(C7CCC(=O)NC7=O)C8=O)CC6)C5)CC4)ncc3Cl)ccc2n(C(C)C)c1=O (stereo partly drawn) [Compound 37, 2-({6-[(5-chloro-2-{4-[(1r,3r)-3-{4-[2-(2,6-dioxopiperidin-3-yl)-7-methyl-1-oxo-3H-isoindol-5-yl]piperidin-1-yl}cyclobutoxy]piperidin-1-yl}pyrimidin-4-yl)amino]-1-isopropyl-2-oxoquinolin-3-yl}oxy)-N-methylacetamide]",< 10,≥ 70
"CNC(=O)COc1cc2cc(Nc3nc(N4CCC(O[C@H]5C[C@H](N6CCN(c7ccc8c(c7Cl)[C@H](C)N([C@H]7CCC(=O)NC7=O)C8=O)[C@H](C)C6)C5)CC4)ncc3Cl)ccc2n(C(C)C)c1=O (single isomer, unassigned) [Compound 34]",10 to 50,< 50
"CNC(=O)COc1cc2cc(Nc3nc(N4CCC(O[C@H]5C[C@H](N6CCN(c7ccc8c(n7)n(C)c(=O)n8C7CCC(=O)NC7=O)CC6)C5)CC4)ncc3Cl)ccc2n(C(C)C)c1=O (stereo partly drawn) [Compound 6, 2-({6-[(5-chloro-2-{4-[(1r,3r)-3-{4-[1-(2,6-dioxopiperidin-3-yl)-3-methyl-2-oxo-1H,2H,3H-imidazo[4,5-b]pyridin-5-yl]piperazin-1-yl}cyclobutoxy]piperidin-1-yl}pyrimidin-4-yl)amino]-2-oxo-1-(propan-2-yl)-1,2-dihydroquinolin-3-yl}oxy)-N-methylacetamide]",< 10,≥ 70
"CNC(=O)COc1cc2cc(Nc3nc(N4CCC(O[C@H]5C[C@H](N6CCN(c7cc(F)c8c(c7)n(C)c(=O)n8C7CCC(=O)NC7=O)CC6)C5)CC4)ncc3Cl)ccc2n(C(C)C)c1=O (stereo partly drawn) [Compound 10, 2-({6-[(5-chloro-2-{4-[(1r,3r)-3-{4-[1-(2,6-dioxopiperidin-3-yl)-7-fluoro-3-methyl-2-oxo-2,3-dihydro-1H-1,3-benzodiazol-5-yl]piperazin-1-yl}cyclobutoxy]piperidin-1-yl}pyrimidin-4-yl)amino]-2-oxo-1-(propan-2-yl)-1,2-dihydroquinolin-3-yl}oxy)-N-methylacetamide]",< 10,≥ 70
"CNC(=O)COc1cc2cc(Nc3nc(N4CCC(O[C@H]5C[C@H](N6CCC(c7cccc8c7n(C)c(=O)n8C7CCC(=O)NC7=O)CC6)C5)CC4)ncc3Cl)ccc2n(C(C)C)c1=O (stereo partly drawn) [Compound 1, 2-({6-[(5-chloro-2-{4-[(1r,3r)-3-{4-[1-(2,6-dioxopiperidin-3-yl)-3-methyl-2-oxo-2,3-dihydro-1H-1,3-benzodiazol-4-yl]piperidin-1-yl}cyclobutoxy]piperidin-1-yl}pyrimidin-4-yl)amino]-2-oxo-1-(propan-2-yl)-1,2-dihydroquinolin-3-yl}oxy)-N-methylacetamide]",< 10,≥ 70
"CNC(=O)COc1cc2cc(Nc3nc(N4CCC(O[C@H]5C[C@H](N6CCN(c7ccc8nn(C9CCC(=O)NC9=O)cc8c7)CC6)C5)CC4)ncc3Cl)ccc2n(C(C)C)c1=O (stereo partly drawn) [Compound 22, 2-({6-[(5-chloro-2-{4-[(1r,3r)-3-{4-[2-(2,6-dioxopiperidin-3-yl)-2H-indazol-5-yl]piperazin-1-yl}cyclobutoxy]piperidin-1-yl}pyrimidin-4-yl)amino]-2-oxo-1-(propan-2-yl)-1,2-dihydroquinolin-3-yl}oxy)-N-methylacetamide]",10 to 50,50 to 70
"CNC(=O)COc1cc2cc(Nc3nc(N4CCC(O[C@H]5C[C@H](N6CCN(c7ccc(NC8CCC(=O)NC8=O)cc7)CC6)C5)CC4)ncc3Cl)ccc2n(C(C)C)c1=O (stereo partly drawn) [Compound 5, 2-({6-[(5-chloro-2-{4-[(1r,3r)-3-(4-{4-[(2,6-dioxopiperidin-3-yl)amino]phenyl}piperazin-1-yl)cyclobutoxy]piperidin-1-yl}pyrimidin-4-yl)amino]-2-oxo-1-(propan-2-yl)-1,2-dihydroquinolin-3-yl}oxy)-N-methylacetamide]",50 to 100,
"CNC(=O)COc1cc2cc(Nc3nc(N4CCC(O[C@H]5C[C@H](N6CCN(c7cccc8c7n(C)c(=O)n8C7CCC(=O)NC7=O)CC6)C5)CC4)ncc3Cl)ccc2n(C(C)C)c1=O (stereo partly drawn) [Compound 2, 2-({6-[(5-chloro-2-{4-[(1r,3r)-3-{4-[1-(2,6-dioxopiperidin-3-yl)-3-methyl-2-oxo-2,3-dihydro-1H-1,3-benzodiazol-4-yl]piperazin-1-yl}cyclobutoxy]piperidin-1-yl}pyrimidin-4-yl)amino]-2-oxo-1-(propan-2-yl)-1,2-dihydroquinolin-3-yl}oxy)-N-methylacetamide]",< 10,≥ 70
"CNC(=O)COc1cc2cc(Nc3nc(N4CCC(O[C@H]5C[C@H](N6CC[C@@H](c7cc(C)c8c(c7F)CN([C@H]7CCC(=O)NC7=O)C8=O)[C@@H](F)C6)C5)CC4)ncc3Cl)ccc2n(C(C)C)c1=O [Compound 38, 2-({6-[(5-chloro-2-{4-[(1r,3r)-3-[(3R,4S)-4-{2-[(3S)-2,6-dioxopiperidin-3-yl]-4-fluoro-7-methyl-1-oxo-3H-isoindol-5-yl}-3-fluoropiperidin-1-yl]cyclobutoxy]piperidin-1-yl}pyrimidin-4-yl)amino]-1-isopropyl-2-oxoquinolin-3-yl}oxy)-N-methylacetamide]",< 10,50 to 70
